Laboratory results reported in ChEMBL document CHEMBL1201862, “PubChem BioAssay data set” (2004).
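Compound exposure: 48 hours, 5 concentrations, 96-well plates. GI50 marks 50% less growth.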 Calls of active or inactive are those of the source. Cut-off read from the data, not from the text of the source: active = GI50 up to about 1.1 µM and inactive = higher.

What was measured:
Experiment in all cases: NCI anticancer screen, dose series, 48 h
OVCAR-8 = tested on: OVCAR-8
EKVX = tested on: EKVX
M14 = tested on: M14
NCI-H23 = tested on: NCI-H23
SK-MEL-2 = tested on: SK-MEL-2
DMS-114 = tested on: DMS-114
SN12C = tested on: SN12C
OVCAR-3 = tested on: OVCAR-3
OVCAR-5 = tested on: OVCAR-5
MOLT-4 = tested on: MOLT-4
K562 = tested on: K562
HCC 2998 = tested on: HCC 2998
U-251 = tested on: U-251
TK-10 = tested on: TK-10
786-0 = tested on: 786-0
Malme-3M = tested on: Malme-3M
BT-549 = tested on: BT-549
DU-145 = tested on: DU-145
PC-3 = tested on: PC-3
MDA-MB-435 = tested on: MDA-MB-435

SMILES | GI50 (OVCAR-8) | GI50 (EKVX) | GI50 (M14) | GI50 (NCI-H23) | GI50 (SK-MEL-2) | GI50 (DMS-114) | GI50 (SN12C) | GI50 (OVCAR-3) | GI50 (OVCAR-5) | GI50 (MOLT-4) | GI50 (K562) | GI50 (HCC 2998) | GI50 (U-251) | GI50 (TK-10) | GI50 (786-0) | GI50 (Malme-3M) | GI50 (BT-549) | GI50 (DU-145) | GI50 (PC-3) | GI50 (MDA-MB-435)
O=C(O)CCCSC(=O)Nc1ccc(/N=N/c2ccccc2)cc1 | > 100 µM (inactive) | > 100 µM (inactive) | > 100 µM (inactive) | > 100 µM (inactive) | > 100 µM (inactive) | > 100 µM (inactive) | > 100 µM (inactive) | > 100 µM (inactive) | > 100 µM (inactive) | 9.68 µM (inactive) | 65.9 µM (inactive) | > 100 µM (inactive) | > 100 µM (inactive) | > 100 µM (inactive) | > 100 µM (inactive) | – | – | – | – | –
CC[C@@]1(O)C(=O)OCc2c1cc1n(c2=O)Cc2cc3c(OC)cccc3nc2-1 | – | 2.04 µM (inactive) | 0.2 µM (active) | < 0.1 µM (active) | 0.834 µM (active) | < 0.01 µM (active) | < 0.1 µM (active) | 0.521 µM (active) | 0.417 µM (active) | 0.14 µM (active) | 0.171 µM (active) | – | – | 3.74 µM (inactive) | 0.211 µM (active) | 0.348 µM (active) | – | – | – | –
Cc1cc(-c2ccccc2)cc2[n+]1CC=C2.[O-][Cl+3]([O-])([O-])[O-] | > 100 µM (inactive) | 54.6 µM (inactive) | > 100 µM (inactive) | 59.2 µM (inactive) | > 100 µM (inactive) | 77.4 µM (inactive) | 95.5 µM (inactive) | – | > 100 µM (inactive) | – | – | > 100 µM (inactive) | > 100 µM (inactive) | 46.6 µM (inactive) | > 100 µM (inactive) | 75 µM (inactive) | – | – | – | –
NS(=O)(=O)c1ccc(N=C2C(=O)Nc3ccccc32)cc1 | > 100 µM (inactive) | > 100 µM (inactive) | > 100 µM (inactive) | > 100 µM (inactive) | > 100 µM (inactive) | – | > 100 µM (inactive) | > 100 µM (inactive) | > 100 µM (inactive) | > 100 µM (inactive) | 65.8 µM (inactive) | > 100 µM (inactive) | > 100 µM (inactive) | > 100 µM (inactive) | > 100 µM (inactive) | > 100 µM (inactive) | > 100 µM (inactive) | > 100 µM (inactive) | > 100 µM (inactive) | 24.5 µM (inactive)
CN(C)CCNC1=CC(=O)c2c(O)ccc(O)c2C1=O | 4.39 µM (inactive) | 12.8 µM (inactive) | 3.23 µM (inactive) | 4.98 µM (inactive) | 8.95 µM (inactive) | – | 6.47 µM (inactive) | 2.33 µM (inactive) | 14.2 µM (inactive) | 5.14 µM (inactive) | 2.52 µM (inactive) | 3.88 µM (inactive) | 11.9 µM (inactive) | 14.4 µM (inactive) | 4.7 µM (inactive) | 1.25 µM (inactive) | 14.6 µM (inactive) | 13.8 µM (inactive) | 5.77 µM (inactive) | 1.8 µM (inactive)
COc1ccc(NC(=O)/C(Cc2nc3ccccc3nc2O)=N\O)c(OC)c1 | > 100 µM (inactive) | > 100 µM (inactive) | > 100 µM (inactive) | > 100 µM (inactive) | – | > 100 µM (inactive) | > 100 µM (inactive) | > 100 µM (inactive) | > 100 µM (inactive) | – | > 100 µM (inactive) | > 100 µM (inactive) | > 100 µM (inactive) | > 100 µM (inactive) | > 100 µM (inactive) | > 100 µM (inactive) | – | – | – | –
CC(C)(C)c1ccc(-c2nc3ccc(Cl)cc3c(=O)o2)cc1 | 14.5 µM (inactive) | 20.6 µM (inactive) | 17.9 µM (inactive) | 11.4 µM (inactive) | 18.5 µM (inactive) | – | 27.1 µM (inactive) | 7.78 µM (inactive) | 25.1 µM (inactive) | 16.9 µM (inactive) | 15.8 µM (inactive) | 12.8 µM (inactive) | 12.6 µM (inactive) | 41.3 µM (inactive) | 36.6 µM (inactive) | 16.6 µM (inactive) | 21.2 µM (inactive) | 25.4 µM (inactive) | 21.5 µM (inactive) | 24.1 µM (inactive)
CN1CCc2c3n(c4cc(Br)ccc24)[C@H](O)CCCC31 (stereo partly specified) | 1.79 µM (inactive) | > 10 µM (inactive) | 1.79 µM (inactive) | > 10 µM (inactive) | 0.736 µM (active) | – | > 7.16 µM (inactive) | > 7.5 µM (inactive) | > 5.18 µM (inactive) | 1.95 µM (inactive) | 1.37 µM (inactive) | 1.75 µM (inactive) | 1.85 µM (inactive) | > 7.36 µM (inactive) | 1.7 µM (inactive) | 2.04 µM (inactive) | > 10 µM (inactive) | > 10 µM (inactive) | 5.89 µM (inactive) | 1.8 µM (inactive)
